Data taken from patent US7867707B2, “Method for detecting analytes in a sample” (Evotec AG, priority 2004, dated 2011).

System: c-fos mRNA
Assay: Expression of c-fos mRNA in HepG2 cells, bead-based confocal detection with detection/capture oligonucleotides
Assay type: cell-based
Conditions: 100 nM PMA, 24 μl of lysate, using the calibration of example 1a
Protocol: Fully automated dual-channel confocal imaging was performed with two independent cooled CCD detectors. Excitation wavelengths were 532 nm and 633 nm, a dichroic beam splitter with 630 nm was used and emission filters were 565/50 nm and 690/40 nm. Laser power was […] for both wavelengths, measured at the entrance of the objective. Exposure times were usually in the range of 500-1000 ms.
The analysis of the images was performed with image analysis software as follows. Segmentation of the beads from the background was performed on a pixel-basis in the reference image. […] A mask of these rings corresponding to detected beads was generated from the reference image. This mask was applied to the signal image (see FIG. 6, right picture). Areas within the outer boundary of the ring were evaluated for fluorescence intensity stemming from the DO-analyte-CO complex bound to the bead. […] Such local background intensity was then subtracted from the signal intensity.
The final result was the mean fluorescence intensity/bead pixel of the signal image. In general, the intensity was averaged over all correctly detected beads of the image. As already mentioned, images of sedimented beads were taken. The sedimented beads were usually comprised in wells of micro- or nanotiter plates and in some cases, several images were taken of each well. […]

CCCCCCCCCCCCCC(=O)O[C@@H]1[C@@H](C)[C@@]2(O)[C@@H](C=C(CO)C[C@]3(O)C(=O)C(C)=C[C@@H]23)[C@@H]2C(C)(C)[C@]12OC(C)=O [PMA, Phorbol 12-myristate 13-acetate]
c-fos mRNA copy number: 3.03*10^6 copies mRNA/well
